Here are results for two compounds from patent US20110293745A1, “AURORA KINASE INHIBITORS” (SUNESIS PHARMACEUTICALS, INC., priority 2008, published 2011).

Some results are limits rather than exact numbers.

The term IC50 denotes the point on the concentration scale where inhibition reaches its midpoint. As a reminder, the EC50 is the concentration needed to bring the measured effect to its halfway point. The AUC(0-inf) is total exposure, with the tail of the curve extrapolated. Low readings indicate less exposure, high ones more exposure. By half-life is commonly meant the time needed for the level to fall by half in the phase considered. Low values mean fast loss, high ones slow loss.

For one data set, the system named is panel of 219 kinases. As to conditions: read-out: IC50 of the remaining 197 kinases.
The target of the next data set is T1, c-Raf (Homo sapiens, UniProt P04049).
T1 construct: purchased Upstate Biotechnology, Dundee, UK
T1 sequence (P04049 whole entry): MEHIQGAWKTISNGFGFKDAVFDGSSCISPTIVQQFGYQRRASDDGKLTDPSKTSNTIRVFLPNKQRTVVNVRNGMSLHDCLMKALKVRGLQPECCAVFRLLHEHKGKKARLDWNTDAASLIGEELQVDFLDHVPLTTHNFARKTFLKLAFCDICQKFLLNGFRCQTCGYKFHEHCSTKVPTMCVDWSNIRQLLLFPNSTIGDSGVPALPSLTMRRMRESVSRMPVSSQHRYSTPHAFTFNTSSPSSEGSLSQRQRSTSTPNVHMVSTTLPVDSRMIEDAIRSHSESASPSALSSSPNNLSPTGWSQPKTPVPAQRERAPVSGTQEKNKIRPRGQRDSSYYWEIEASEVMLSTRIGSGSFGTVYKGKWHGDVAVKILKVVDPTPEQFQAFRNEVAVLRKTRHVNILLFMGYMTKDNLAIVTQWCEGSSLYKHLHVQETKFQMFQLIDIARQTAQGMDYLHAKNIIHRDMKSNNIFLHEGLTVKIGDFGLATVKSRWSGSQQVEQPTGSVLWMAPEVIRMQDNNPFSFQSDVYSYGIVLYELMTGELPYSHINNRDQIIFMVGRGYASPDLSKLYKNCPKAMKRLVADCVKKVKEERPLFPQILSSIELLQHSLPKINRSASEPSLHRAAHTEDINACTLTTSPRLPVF
Briefly: Radiometric kinase assay (Upstate panel). It is filed as biochemical.

The test system of another data set is pHH3 in HT-29. In words: cells. Particulars: Homo sapiens, HT-29, 1 h, read-out: pHH3 IC50.
For data set [1], the system named is Calu 6 lung carcinoma xenograft. Briefly: In vivo efficacy, mouse xenograft. As to conditions: CALU6 (NSCLC). How it is done: Percent TGI is then calculated with the following equation: […]
Time To Endpoint (TTE) was calculated for each individual animal to reach the predetermined study end point where the tumor volume becomes 1200 mm^3 or 10% of body weight or a greater than 20% body weight loss for two sequential measurements. The TTE is calculated and the median value is recorded for the group. Tumor Growth Delay (TGD) is then calculated with the following equation: […]
Calu 6 lung carcinoma cells [200 μL of a 5×10^7 cells/ml suspension (1:1 DPBS with cells:Matrigel)] were implanted subcutaneously in the right hind flank of mice. After 11 days, when tumors reached an average volume of approximately 150 mm^3, animals were weighed, randomized by tumor volume (l×w×h×0.52), and assigned to the various study groups before initial dosing.

The subject of the next data set is MiaPaca2. In words: Cell cycle analysis (cells with ≧4N DNA content). Format: cell-based. Particulars: Homo sapiens, MIA PaCa-2, MiaPaca2, 16 hours. From the text:
Cells were fixed, stained, and analyzed.

Data set [2] concerns histone H3 phosphorylation in epidermis. Briefly: pHH3 immunohistochemistry in mouse skin punches. It is filed as in vivo. How it is done:
For each study, animals were randomized by tumor volume and distributed into groups of ten animals each. […] Inhibition of histone H3 (HH3) phosphorylation was evaluated in HCT 116 xenograft tumors, mouse femur bone marrow, and mouse skin punch biopsy sections by immunohistochemistry (IHC). […] The tumors were collected 6 hrs post-dose on day 4, 11, 18 and on day 25 (one week after completion of dosing phase of the experiment). Phosphorylated histone H3 (pHH3) was detected by immunohistochemistry staining of tissue sections with the antibody # 9701 (Cell Signaling Technology, Inc.), which recognizes phosphorylation of Ser10 residue in histone H3 protein. […] Three mice in each group were sacrificed on day 4 and day 18, 6 hours post-dose. Skin punches (8 mm) were fixed in formalin, trimmed, and sections stained to identify cells positive for histone H3 phosphorylation.

Data set [3] relates to histone H3 phosphorylation in skin biopsies. Briefly: Clinical pharmacodynamics, skin punch biopsies. Format: in vivo, human. As to conditions: Cycle 1, Day 1, 3-7 hours after start of infusion. On the procedure:
Clinical pharmacodynamic assessments were performed as follows. Skin punch biopsy samples were collected prior to (e.g., just prior to or up to 14 days prior to) treatment and during Cycle 1, Day 1 of treatment at between 3 and 7 hours after the start of the 3-hour infusion. Skin punch biopsy samples were analyzed for inhibition of histone H3 phosphorylation.

The subject of data set [4] is MV-4-11 (human acute myeloid leukemia) xenograft. In words: In vivo efficacy, mouse xenograft. As to conditions: 150 mg/kg IP twice-weekly for 3 weeks. How it is done: The human cell line MV-4-11 (human acute myeloid leukemia) was established as subcutaneous xenografts in nu/nu female mice. Animals were randomized by tumor volume and distributed into groups of ten animals each. Treatments were initiated when tumors averaged about 200 mm^3 in volume. End points for each group were determined based on body weight nadir, adverse clinical observations, or tumor volumes exceeding maximum threshold of 2000 mm^3.
[…]. Responses were assessed by tumor growth inhibition (TGI) and tumor growth delay (TGD). TGI and TGD in the treatment group were evaluated against the vehicle control group.

Another data set concerns HT-29. Briefly: cells. Particulars: Homo sapiens, HT-29, 16 h, read-out: Cell Cycle EC50.
A short description of data set [5]: Mass balance, elimination, autoradiography and metabolites with 14C-label. It is filed as in vivo. As to conditions: IV bolus 50 mg/kg, male rats, whole-body autoradiography.
Data set [6] can be described thus: Pharmacokinetics, single bolus intravenous injection. It is filed as in vivo, Sprague-Dawley rats. Particulars: Sprague-Dawley, rat, plasma, 5 mg/kg. The text has this:
(§1) Pharmacokinetic parameters were estimated using noncompartmental analysis within WinNonlin v. 4.1. Quantification of Compound 2 was done by HPLC-MS/MS after extraction from plasma with acetonitrile. […] For rising dose experiments measuring exposure for each species, sets containing several animals were singly dosed at a given dose. Results from single-dose experiments are shown in FIG. 10A, Table 43, and in FIG. 10B and Table 44, respectively. […] C0 is initial concentration extrapolated to time zero. AUCINF is area under the plasma-concentration time curve from time zero extrapolated to the infinite time. CL is clearance; Vss is steady state volume of distribution. T1/2 is half-life.

The nature of data set [7]: Protein binding, Rapid Equilibrium Dialysis. Particulars: 15 μM. Format: in vitro ADME. How it is done:
Studies were performed using the Rapid Equilibrium Dialysis (RED) device (Linden Bioscience). Inserts were soaked in water for 10 min×2, then removed and drained immediately prior to use. […] All experiments were performed in duplicate and each chamber was sampled in duplicate. The samples were incubated for 4-6 h at 37° C. in a rotating incubator (100 rpm). Compound 2 was quantified using LC-MS/MS. Data from duplicate samples each sampled twice.

A short description of data set [8]: Pharmacokinetics, single bolus intravenous injection. Particulars: CD-1, mouse, plasma, 5 mg/kg. It is filed as in vivo, CD-1 mice.
Description: as §1

Data set [9] can be described thus: Bioavailability profile, IV, IP and PO. Format: in vivo, mice. Particulars: for F: mice, 50 mg/kg Compound 1, bioavailability. From the text:
Pharmacokinetic parameters were estimated using noncompartmental analysis within WinNonlin v. 4.1. […] For rising dose experiments measuring exposure for each species, sets containing several animals were singly dosed at a given dose. […] Abbreviations are as in Table 18; F is fraction of dose absorbed.

The mark [10] stands for this setting: CD-1, mouse, plasma, ip, 50 mg/kg.
[11] abbreviates: CD-1, mouse, plasma, iv, 50 mg/kg.
Setting [12] is: CD-1, mouse, plasma, po, 50 mg/kg.

Turning to `CS(=O)(=O)O.O=C(Nc1cccc(Cl)c1)Nc1ncc(CCNc2ncnc3ccsc23)s1` [Compound 1, 1-(3-chlorophenyl)-3-{5-[2-(thieno[3,2-d]pyrimidin-4-ylamino)ethyl]thiazo}-urea], the IC50 in the data set with panel of 219 kinases was no less than 1000 nM; at c-Raf, 0.1 µM; in the data set on pHH3 in HT-29, 60 nM. Moreover, the “% TGI” value in [1] (42.5 mg/kg biw × 3) is listed as 23.5%; in data set [1] (85 mg/kg biw × 3), 28.7%; in data set [1] (170 mg/kg biw × 3), 91.4%. In addition, the EC50 was 9 nM in the data set on MiaPaca2 and 12 nM with HT-29. Also, in [2] (150 mg/kg biweekly for 3 weeks, day 4 and day 18, 6 hours post-dose), the “reduction of number of phospho-histone H3 positively stained cells in epidermis versus vehicle” value is on record as roughly 50%. For the same compound, in data set [2] (day 25), the “number of positively stained cells in epidermis versus vehicle” value is on record as “still decreased”. Moreover, the “doses at which inhibition of pHH3 was observed in skin biopsies of patients” value in data set [3] was no less than 240 mg/m^2. The compound also had a tumor growth delay in data set [4] of 10 days. For the same compound, the “Percent tumor growth inhibition (% TGI)” value in data set [4] (p-value 0.0008) amounted to 75.56%.

As for `O=C(Nc1cccc(Cl)c1)Nc1ncc(CCNc2ncnc3ccsc23)s1` [Compound 2, 1-(3-chlorophenyl)-3-{5-[2-(thieno[3,2-d]pyrimidin-4-ylamino)ethyl]thiazol-2-yl}-urea], in data set [5], the “time of maximum tissue concentrations of radioactivity” value stood at 1 h. The AUC(0-inf) in data set [6] was 2100 ng·h/mL; in data set [8], 1800 ng·h/mL; in data set [9] (setting [10]), 46200 ng·h/mL; in [9] (setting [11]), 43600 ng·h/mL; in data set [9] (setting [12]), 28300 ng·h/mL. Moreover, the C0 in data set [6] was determined as 3600 ng/mL; in [8] it was 7100 ng/mL; in data set [9] (setting [11]), 42000 ng/mL. Moreover, the clearance in data set [6] came to 41.2 mL/min/kg; in data set [8], 47.6 mL/min/kg; in data set [9] (setting [11]) it was 19.1 mL/min/kg. Moreover, the half-life in data set [6] was 48 min; in data set [8], 84 min; in [9] (setting [10]), 42 min; in [9] (setting [11]), 48 min; in data set [9] (setting [12]), 198 min. Also, the Vd in data set [6] (read-out: Vss) was determined as 1.8 L/kg; in data set [8] (read-out: Vss), 1 L/kg; in data set [9] (CD-1, mouse, plasma, iv, 50 mg/kg, read-out: Vss), 1.2 L/kg. Moreover, the mean percentage protein-bound result in data set [7] (dog plasma), in data set [7] (human plasma) and in [7] (mouse plasma) was “greater than or equal to 99.9%” each time. Besides, the F in data set [9] (IP) amounted to 106%; in data set [9] (PO), 65%.
